Measurements reported in US10555987B2, “GHRH agonists for the treatment of ischemic disorders” (UNIVERSITY OF MIAMI, priority 2012, dated 2020).
“And” between values parts separate entries of the source, which are not always exact repeats. Equal entries are not always repeated. Non-standard residues stand in square brackets, D forms with d. Residues, ends and D or L forms follow the SMILES beside them. *: point of attachment. Desaminotyrosyl = O=C(CCc1ccc(O)cc1)*; NMeY = CN[C@@H](Cc1ccc(O)cc1)C(=O)O; Agmatine = N=C(N)NCCCCN*; Nle = CCCC[C@H](N)C(=O)O; Orn = NCCC[C@H](N)C(=O)O; Abu = CC[C@H](N)C(=O)O

Key:
GH release = experiment: GH releasing potency in vivo, subcutaneous administration (Example 14, Table 12); parameters: species or system rat; details: for Serum GH level at selected time after injection (ng/ml), 0 min / Serum GH level at selected time after injection (ng/ml), 15 min / Serum GH level at selected time after injection (ng/ml), 30 min: male rats, dose 3 μg/kg, mean ± SEM; for Serum GH level at selected time after injection (ng/ml), 0 min / Serum GH level at selected time after injection (ng/ml), 15 min / Serum GH level at selected time after injection (ng/ml), 30 min / Relative potency compared to GHRH(1-29), 15 min / Relative potency compared to JI-38, 15 min / Relative potency compared to GHRH(1-29), 30 min / Relative potency compared to JI-38, 30 min: s.c.
Procedure, shortened: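 Potency is expressed relative to GHRH(1-29)NH2 and JI-38 (each = 1), via equivalent GHRH(1-29)NH2 dose read from a standard curve. Peptides in 5% mannitol given i.v. or s.c. to anaesthetised male Sprague-Dawley rats (200-250 g); serum GH measured by ELISA at selected times.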

GHRH receptor [1] = molecular target: T1, GHRH receptor (Homo sapiens, UniProt Q02643); experiment: Receptor binding in vitro, 125I-labeled [His1,Nle27]-hGHRH(1-32)NH2, membrane receptors of human anterior pituitary cells (Table 14); details: for Relative affinity (Binding potency) compared to JI-38: JI-38 = 1; for Relative affinity (Binding potency) compared to hGHRH(1-29): hGHRH(1-29)NH2 = 1; for GHRH receptor binding affinity (in words): compared to JI-38
T1 sequence (Q02643 23-423): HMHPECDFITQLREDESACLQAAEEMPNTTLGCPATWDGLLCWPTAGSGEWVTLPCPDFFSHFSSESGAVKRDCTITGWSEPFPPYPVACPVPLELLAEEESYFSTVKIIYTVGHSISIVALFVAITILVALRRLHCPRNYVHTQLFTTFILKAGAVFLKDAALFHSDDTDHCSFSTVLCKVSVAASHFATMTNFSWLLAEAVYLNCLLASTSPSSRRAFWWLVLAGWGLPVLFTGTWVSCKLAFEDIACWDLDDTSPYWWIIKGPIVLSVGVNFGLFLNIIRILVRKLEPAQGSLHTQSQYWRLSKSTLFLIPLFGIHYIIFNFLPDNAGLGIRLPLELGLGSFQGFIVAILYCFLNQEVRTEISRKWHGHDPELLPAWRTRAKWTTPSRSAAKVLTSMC
Source text: Normal human pituitary was purchased from the National Hormone and Peptide Program (UCLA Medical Center, Torrance, Calif.).

GHRH receptor [2] = molecular target: T1, GHRH receptor; experiment: GHRH receptor binding, competition with 125I-labeled JV-1-42, human pituitary membrane homogenates (Table 7); parameters: Normal human pituitaries were purchased from the National Hormone and Peptide Program; tissue National Hormone and Peptide Program (A.F. Parlow, Harbor-UCLA Medical Center, Torrance, Calif.); host or cells: normal human pituitary, membrane fraction; details: for Relative affinity (Binding potency) vs JI-38: JI-38 = 1, Table 7
Source text: Normal human pituitaries were purchased from the National Hormone and Peptide Program (A.F. Parlow, Los Angeles, County Harbor-UCLA Medical Center, Torrance, Calif.).

[3] = system: myocardial infarction (Fisher-344 rats); experiment: Serial echocardiography after MI, compared to JI-38 (Example 15, Table 15); assay type: in vivo, rat; parameters: key to LVEDD: Left Ventricular End Diastolic Diameter / LVESD: Left Ventricular End Systolic Diameter / VD: Ventricular Diastole / VS: Ventricular Systole / EF: Ejection Fraction / FS: Fraction Shortening: ↓: downward arrow denotes lower than JI-38; ↑: upward arrow denotes greater than JI-38; =denotes same as JI-38; ⬇⬇: double arrow denotes greater effect; ⬆⬆: double arrow denotes greater effect; details: for EF: Ejection Fraction / FS: Fraction Shortening / LVEDD: Left Ventricular End Diastolic Diameter / LVESD: Left Ventricular End Systolic Diameter / VD: Ventricular Diastole / VS: Ventricular Systole: in comparison to JI-38
Protocol: Echocardiographic measurements were obtained at baseline, 2 days, 1, 2 and 4 weeks. Echocardiographic assessments were performed in anesthetized rats (2% isoflurane inhalation) using a Vevo-770 echocardiogram (Visual Sonics Inc., Toronto, Ontario, Canada) equipped with a 17.5-MHz transducer. Cardiac dimensions: LV end diastolic (LVEDD), end systolic (LVESD) diameters and fractional shortening (FS) were recorded from M-mode images using averaged measurements from 3 to 5 consecutive cardiac cycles according to the American Society of Echocardiography. Ejection fraction (EF) was calculated from bi-dimensional long-axis parasternal views taken through the infarcted area. All images were analyzed using Vevo 770 3.0.0 software (Visual Sonics Inc., Toronto, Ontario, Canada).
Myocardial infarction (MI) was induced by permanent ligation of the left coronary artery in female 6-month-old Fisher-344 rats. Following experimental myocardial infarction (MI), rats were randomly assigned to receive either placebo, JI-38, or one of the following new analogs of GHRH: MR-30 l(P-21301), MR-303(P-21303), MR-356(P-20356), MR-502(25502), MR-350(P-20350), MR-36 l(P-20361), MR-367(P-20367), MR-403(P-27403), MR-404(P-27404), and MR-409(P-27409) (10 rats per each group). The GHRH peptide agonists were adminsistered starting 2 hours post-surgery, 1 week, 2 week, and 4 week intervals. All treatment was given subcutaneously twice daily. Cardiac performance was assessed by serial echocardiography and hemodynamic analysis derived from pressure-volume loops as described before.
The echocardiographic experiments are shown in FIGS. 10-15 and the results are summarized in Table 15 (results were expressed in comparison to JI-38; downward arrow denotes lower than JI-38; upward arrow denotes greater than JI-38; =denotes same as JI-38; and double arrow denotes greater effect).

Row | Structure (SMILES) | Serum GH level at selected time after injection (ng/ml), 0 min (GH release) | Serum GH level at selected time after injection (ng/ml), 15 min (GH release) | Serum GH level at selected time after injection (ng/ml), 30 min (GH release) | Relative potency compared to GHRH(1-29), 15 min (GH release) | Relative potency compared to JI-38, 15 min (GH release) | Relative potency compared to GHRH(1-29), 30 min (GH release) | Relative potency compared to JI-38, 30 min (GH release) | Relative affinity (Binding potency) compared to JI-38 (GHRH receptor [1]) | Relative affinity (Binding potency) compared to hGHRH(1-29) (GHRH receptor [1]) | Relative affinity (Binding potency) vs JI-38 (GHRH receptor [2]) | GHRH receptor binding affinity (in words) (GHRH receptor [1]) | EF: Ejection Fraction [3] | FS: Fraction Shortening [3] | LVEDD: Left Ventricular End Diastolic Diameter [3] | LVESD: Left Ventricular End Systolic Diameter [3] | VD: Ventricular Diastole [3] | VS: Ventricular Systole [3] | other results
1 | CCCC[C@H](NC(=O)[C@@H](NC(=O)[C@H](CC(=O)O)NC(=O)[C@H](CCC(N)=O)NC(=O)[C@H](CC(C)C)NC(=O)[C@H](CC(C)C)NC(=O)[C@H](CCCN)NC(=O)[C@H](CCCNC(=N)N)NC(=O)[C@H](C)NC(=O)[C@H](CO)NC(=O)[C@H](CC(C)C)NC(=O)[C@H](CCC(N)=O)NC(=O)[C@H](CC)NC(=O)[C@H](CC(C)C)NC(=O)[C@@H](NC(=O)[C@H](CCCN)NC(=O)[C@H](CCCNC(=N)N)NC(=O)[C@H](Cc1ccc(O)cc1)NC(=O)[C@H](CO)NC(=O)[C@H](CCC(N)=O)NC(=O)[C@@H](NC(=O)[C@H](Cc1ccccc1)NC(=O)[C@@H](NC(=O)[C@H](C)NC(=O)[C@H](CC(=O)O)NC(=O)[C@H](C)NC(=O)CCc1ccc(O)cc1)[C@@H](C)CC)[C@@H](C)O)C(C)C)[C@@H](C)CC)C(=O)N[C@@H](CC(=O)O)C(=O)NCCCCNC(=N)N [JI-38, [Dat^1, Gln^8, Orn^12,21, Abu^15, Nle^27, Asp^28, Agm^29]hGHRH(1-29)NH2, reference compound] (Desaminotyrosyl-ADAIFTQSYR[Orn]VL[Abu]QLSAR[Orn]LLQDI[Nle]D-Agmatine) | 33.2 ± 2.8 ng/mL | 230.0 ± 15.1 ng/mL | 128.7 ± 13.3 ng/mL | 63.1 | 1.00 | 111.8 | 1.00 | 1.00 | 2.79 | 1 |  |  |  |  |  |  |  | IC50 (GHRH receptor [2]; 125I-JV-1-42, human pituitary membranes, Table 7): 4.35 nM
2 | CCCC[C@H](NC(=O)[C@@H](NC(=O)[C@H](CC(=O)O)NC(=O)[C@H](CCC(N)=O)NC(=O)[C@H](CC(C)C)NC(=O)[C@H](CC(C)C)NC(=O)[C@H](CCCN)NC(=O)[C@H](CCCNC(=N)N)NC(=O)[C@H](C)NC(=O)[C@H](CO)NC(=O)[C@H](CC(C)C)NC(=O)[C@H](CCC(N)=O)NC(=O)[C@H](CC)NC(=O)[C@H](CC(C)C)NC(=O)[C@@H](NC(=O)[C@H](CCCN)NC(=O)[C@H](CCCNC(=N)N)NC(=O)[C@H](Cc1ccc(O)cc1)NC(=O)[C@H](CO)NC(=O)[C@H](CCC(N)=O)NC(=O)[C@@H](NC(=O)[C@H](Cc1ccccc1)NC(=O)[C@@H](NC(=O)[C@H](C)NC(=O)[C@H](CC(=O)O)NC(=O)[C@H](C)NC(=O)[C@H](Cc1ccc(O)cc1)NC)[C@@H](C)CC)[C@@H](C)O)C(C)C)[C@@H](C)CC)C(=O)N[C@@H](CC(=O)O)C(=O)NCCCCNC(=N)N [Peptide P-20356, [N—Me-Tyr^1, Gln^8, Orn^12, Abu^15, Orn^21, Nle^27, Asp^28, Agm^29]hGHRH(1-29) NH2] (H-[NMeY]ADAIFTQSYR[Orn]VL[Abu]QLSAR[Orn]LLQDI[Nle]D-Agmatine) | 25.3 ± 3.9 ng/mL | 305.4 ± 40.0 ng/mL | 152.4 ± 21.8 ng/mL | 91.2 |  | 150.9 |  |  | 7.50 | 16.11 | improved receptor binding affinity | = | ⬆⬆ | ⬇⬇ | ⬇⬇ | = | = | potency as compared to JI-38 in both i.v. and s.c. tests (GH release; both i.v. and s.c. tests): increased potency as compared to JI-38; Relative potency compared to JI-38, 15 min (GH release; listed as MR-356): 1.4 and 1.45; Relative potency compared to JI-38, 30 min (GH release; listed as MR-356): 1.4 and 1.35; Relative affinity (Binding potency) compared to JI-38 (GHRH receptor [1]; listed as MR-356): 2.7 and 2.69; cardiac dimensions (LVEDD and LVESD) ([3]; after MI): reduced cardiac dimensions; cardiac performance (EF and FS) ([3]; after MI): substantial improvement on cardiac performance
3 | CCCC[C@H](NC(=O)[C@@H](NC(=O)[C@H](CC(=O)O)NC(=O)[C@H](CCC(N)=O)NC(=O)[C@H](CC(C)C)NC(=O)[C@H](CC(C)C)NC(=O)[C@H](CCCN)NC(=O)[C@H](CCCNC(=N)N)NC(=O)[C@H](C)NC(=O)[C@H](CO)NC(=O)[C@H](CC(C)C)NC(=O)[C@H](CCC(N)=O)NC(=O)[C@H](CC)NC(=O)[C@H](CC(C)C)NC(=O)[C@@H](NC(=O)[C@H](CCCN)NC(=O)[C@H](CCCNC(=N)N)NC(=O)[C@H](Cc1ccc(O)cc1)NC(=O)[C@H](CO)NC(=O)[C@H](CCC(N)=O)NC(=O)[C@@H](NC(=O)[C@H](Cc1ccccc1)NC(=O)[C@@H](NC(=O)[C@H](C)NC(=O)[C@H](CC(=O)O)NC(=O)[C@@H](C)NC(=O)[C@H](Cc1ccc(O)cc1)NC)[C@@H](C)CC)[C@@H](C)O)C(C)C)[C@@H](C)CC)C(=O)N[C@@H](CC(=O)O)C(=O)NCCCCNC(=N)N [Peptide P-20361, [N—Me-Tyr^1, D-Ala^2, Gln^8, Orn^12, Abu^15, Orn^21, Nle^27, Asp^28, Agm^29] hGHRH (1-29)NH2] (H-[NMeY][dA]DAIFTQSYR[Orn]VL[Abu]QLSAR[Orn]LLQDI[Nle]D-Agmatine) | 46.1 ± 6.3 ng/mL | 275.9 ± 46.4 ng/mL | 142.6 ± 18.4 ng/mL | 80 | 1.27 | 134.1 | 1.20 | 2.30 | 6.42 | 5.30 | improved receptor binding affinity | ↓ | = | = | = | = | ↑ | 
